# Source: ChEMBL document CHEMBL1124423, “Synthesis of highly mu and delta opioid receptor selective peptides containing a photoaffinity group” (J Med Chem, 1989)
# Tests used:
# Mus musculus [1] = species: Mus musculus; experiment: Concentration that reduced the response by 50% by delta selective analogue was assessed in mouse vas deferens assay; type: functional
# Mus musculus [2] = species: Mus musculus; experiment: Concentration that reduced the response by 50% by delta receptor selective analogue was assessed in mouse vas deferens assay; NA is no activity at 10e-5 M; type: functional
# [3] = target: Delta-type opioid receptor (Rattus norvegicus, UniProt P33533); experiment: Binding potency of compound in competition with [3H]DPDPE for Opioid receptor delta 1 tested in rat brain membrane; type: cell membranes
# Sequence of Delta-type opioid receptor (P33533 whole entry): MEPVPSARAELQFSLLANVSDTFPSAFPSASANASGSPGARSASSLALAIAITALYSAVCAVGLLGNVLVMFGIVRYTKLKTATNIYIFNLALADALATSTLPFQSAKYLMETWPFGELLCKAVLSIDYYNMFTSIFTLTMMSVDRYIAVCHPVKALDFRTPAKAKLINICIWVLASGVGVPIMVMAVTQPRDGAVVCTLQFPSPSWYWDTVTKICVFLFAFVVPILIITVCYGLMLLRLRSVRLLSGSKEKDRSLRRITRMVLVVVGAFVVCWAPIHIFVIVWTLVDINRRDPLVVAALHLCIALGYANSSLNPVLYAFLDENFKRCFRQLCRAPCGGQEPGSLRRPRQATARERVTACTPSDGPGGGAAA
# Mu-type opioid receptor = Mu-type opioid receptor (Rattus norvegicus, UniProt P33535); experiment: Binding potency of compound in competition with [3H]CTOP for Opioid receptor mu 1 tested in rat brain membrane; type: cell membranes
# Sequence of Mu-type opioid receptor (P33535 whole entry): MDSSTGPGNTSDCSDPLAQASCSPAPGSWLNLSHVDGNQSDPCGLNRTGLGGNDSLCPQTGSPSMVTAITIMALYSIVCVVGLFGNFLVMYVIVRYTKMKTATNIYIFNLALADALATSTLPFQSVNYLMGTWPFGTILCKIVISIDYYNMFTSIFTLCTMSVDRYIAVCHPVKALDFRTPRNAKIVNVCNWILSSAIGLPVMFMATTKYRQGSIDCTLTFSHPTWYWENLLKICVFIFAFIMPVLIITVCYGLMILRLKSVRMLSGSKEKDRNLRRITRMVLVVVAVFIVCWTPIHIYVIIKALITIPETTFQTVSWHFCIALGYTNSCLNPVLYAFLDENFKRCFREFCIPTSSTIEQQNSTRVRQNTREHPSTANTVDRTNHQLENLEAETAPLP
# Cavia porcellus [4] = species: Cavia porcellus; experiment: Affinity of mu receptor selective analogue in Guinea pig ileum assay expressed as pA2; type: functional; details: read-out: pA2 (converted)
# [5] = target: Opioid receptors; mu & delta (Homo sapiens) (UniProt P41143+P35372); experiment: Selectivity ratio for binding to mu vs delta opioid receptor; type: protein assay
# Sequence of Opioid receptors; mu & delta (Homo sapiens) (P35372 whole entry, looked up): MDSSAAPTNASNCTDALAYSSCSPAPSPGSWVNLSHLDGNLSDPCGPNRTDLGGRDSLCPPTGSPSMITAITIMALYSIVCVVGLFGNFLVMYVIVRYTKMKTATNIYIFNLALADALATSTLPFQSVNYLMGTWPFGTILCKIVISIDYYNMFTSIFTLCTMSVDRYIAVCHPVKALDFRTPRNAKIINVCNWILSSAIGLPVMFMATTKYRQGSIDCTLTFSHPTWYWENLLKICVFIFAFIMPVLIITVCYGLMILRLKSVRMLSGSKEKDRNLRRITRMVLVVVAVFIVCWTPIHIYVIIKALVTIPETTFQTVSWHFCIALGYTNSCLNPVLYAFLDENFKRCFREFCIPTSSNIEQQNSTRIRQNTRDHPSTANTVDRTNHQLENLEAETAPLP
# Sequence of Opioid receptors; mu & delta (Homo sapiens) (P41143 whole entry, looked up): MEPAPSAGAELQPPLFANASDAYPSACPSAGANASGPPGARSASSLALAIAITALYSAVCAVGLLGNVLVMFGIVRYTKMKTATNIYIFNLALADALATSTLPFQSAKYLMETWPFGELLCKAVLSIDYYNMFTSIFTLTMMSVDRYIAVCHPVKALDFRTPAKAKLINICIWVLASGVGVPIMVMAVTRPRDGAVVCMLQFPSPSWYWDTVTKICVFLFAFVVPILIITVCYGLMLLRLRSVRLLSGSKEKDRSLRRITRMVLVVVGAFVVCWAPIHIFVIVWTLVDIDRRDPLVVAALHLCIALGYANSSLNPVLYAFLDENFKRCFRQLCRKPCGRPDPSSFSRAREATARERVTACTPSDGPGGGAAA
# Cavia porcellus [6] = species: Cavia porcellus; experiment: Inhibition of response by delta receptor selective analogue at 10000 nM was assessed in Guinea pig ileum assay; type: functional
# Mus musculus [7] = species: Mus musculus; experiment: Concentration that reduced the response by 50% by delta selective analogue was assessed in mouse vas deferens assay; NA is no activity at 10e-5 M; type: functional
# Cavia porcellus [8] = species: Cavia porcellus; experiment: Concentration that reduced the response by 50% by delta receptor selective analogue was assessed in Guinea pig ileum assay; type: functional
# Cavia porcellus [9] = species: Cavia porcellus; experiment: Inhibition of response by delta receptor selective analogue at 3000 nM was assessed in Guinea pig ileum assay; type: functional
# Cavia porcellus [10] = species: Cavia porcellus; experiment: Inhibition of response by delta receptor selective analogue at 300 nM was assessed in Guinea pig ileum assay; type: functional
smiles,measurement,setting,value
CC1(C)SSC(C)(C)[C@@H](NC(=O)[C@@H](N)Cc2ccc(O)cc2)C(=O)NCC(=O)N[C@@H](Cc2ccccc2)C(=O)N[C@H]1C(=O)O,IC50,Mus musculus [1],4.3 nM
C[C@@H](O)[C@H](NC(=O)[C@H]1NC(=O)[C@H]([C@@H](C)O)NC(=O)[C@H](CCCCN)NC(=O)[C@@H](Cc2c[nH]c3ccccc23)NC(=O)[C@H](Cc2ccc(O)cc2)NC(=O)[C@@H](NC(=O)[C@H](N)Cc2ccccc2)CSSC1(C)C)C(=O)O,IC50,Mus musculus [2],Not Active
same,IC50,[3],8400 nM
same,IC50,Mu-type opioid receptor,3 nM
same,Kb,Cavia porcellus [4],79.4 nM
CC1(C)SSC(C)(C)[C@@H](NC(=O)[C@@H](N)Cc2ccc(O)cc2)C(=O)NCC(=O)N[C@@H](Cc2ccc(N=[N+]=[N-])cc2)C(=O)N[C@H]1C(=O)O [listing 1 of 2 here],IC50,Mus musculus [1],9.5 nM
C[C@@H](O)[C@H](NC(=O)[C@@H]1NC(=O)[C@H]([C@@H](C)O)NC(=O)[C@@H](CCCCN)NC(=O)[C@@H](Cc2c[nH]c3ccccc23)NC(=O)[C@@H](Cc2ccc(N=[N+]=[N-])cc2)NC(=O)[C@H](NC(=O)[C@@H](N)Cc2ccccc2)CSSC1(C)C)C(N)=O,Ratio,[5],412
C[C@@H](O)[C@H](NC(=O)[C@@H]1NC(=O)[C@H]([C@@H](C)O)NC(=O)[C@@H](CCCCN)NC(=O)[C@@H](Cc2c[nH]c3ccccc23)NC(=O)[C@@H](Cc2ccc(O)cc2)NC(=O)[C@H](NC(=O)[C@@H](N)Cc2ccccc2)CSSC1(C)C)C(=O)O,Ratio,[5],3230
CC1(C)SSC(C)(C)[C@@H](NC(=O)[C@@H](N)Cc2ccc(O)cc2)C(=O)NCC(=O)N[C@@H](Cc2ccc(N=[N+]=[N-])cc2)C(=O)N[C@H]1C(=O)O [listing 2 of 2 here],inhibition at 10 µM,Cavia porcellus [6],6%
C[C@@H](O)[C@H](NC(=O)[C@H]1NC(=O)[C@H]([C@@H](C)O)NC(=O)[C@H](CCCCN)NC(=O)[C@@H](Cc2c[nH]c3ccccc23)NC(=O)[C@H](Cc2ccc(N)cc2)NC(=O)[C@@H](NC(=O)[C@H](N)Cc2ccccc2)CSSC1(C)C)C(N)=O [listing 1 of 2 here],IC50,[3],> 10000 nM
same,IC50,Mus musculus [7],Not Active
same,IC50,Mu-type opioid receptor,500 nM
CC1(C)SSC(C)(C)[C@@H](NC(=O)[C@@H](N)Cc2ccc(O)cc2)C(=O)NCC(=O)N[C@@H](Cc2ccc(N)cc2)C(=O)N[C@H]1C(=O)O,IC50,Mus musculus [1],138 nM
same,IC50,Cavia porcellus [8],> 10000 nM
C[C@@H](O)[C@H](NC(=O)[C@@H]1NC(=O)[C@H]([C@@H](C)O)NC(=O)[C@@H](CCCCN)NC(=O)[C@@H](Cc2c[nH]c3ccccc23)NC(=O)[C@@H](Cc2ccc(N)cc2)NC(=O)[C@H](NC(=O)[C@@H](N)Cc2ccccc2)CSSC1(C)C)C(N)=O,Ratio,[5],> 20
C[C@@H](O)[C@H](NC(=O)[C@H]1NC(=O)[C@H]([C@@H](C)O)NC(=O)[C@H](CCCCN)NC(=O)[C@@H](Cc2c[nH]c3ccccc23)NC(=O)[C@H](Cc2ccc(N=[N+]=[N-])cc2)NC(=O)[C@@H](NC(=O)[C@H](N)Cc2ccccc2)CSSC1(C)C)C(N)=O [listing 1 of 2 here],IC50,[3],20000 nM
same,IC50,Mus musculus [7],Not Active
same,IC50,Mu-type opioid receptor,49 nM
C[C@@H](O)[C@H](NC(=O)[C@H]1NC(=O)[C@H]([C@@H](C)O)NC(=O)[C@H](CCCCN)NC(=O)[C@@H](Cc2c[nH]c3ccccc23)NC(=O)[C@H](Cc2ccc(N)cc2)NC(=O)[C@@H](NC(=O)[C@H](N)Cc2ccccc2)CSSC1(C)C)C(N)=O [listing 2 of 2 here],inhibition at 3 µM,Cavia porcellus [9],5%
C[C@@H](O)[C@H](NC(=O)[C@H]1NC(=O)[C@H]([C@@H](C)O)NC(=O)[C@H](CCCCN)NC(=O)[C@@H](Cc2c[nH]c3ccccc23)NC(=O)[C@H](Cc2ccc(N=[N+]=[N-])cc2)NC(=O)[C@@H](NC(=O)[C@H](N)Cc2ccccc2)CSSC1(C)C)C(N)=O [listing 2 of 2 here],inhibition at 0.3 µM,Cavia porcellus [10],8%
